Converted amounts (≈) assume the structure as drawn. The source made the active and inactive calls. No cut-off for these calls is given here.
Columns and labels:
[1] = Metabolic stability in human liver microsomes assessed as parent compound remaining incubated for 60 mins in presence of NADPH by LC-MS/MS analysis; format: ADME, Microsome; settings: read-out: Stability
[2] = Metabolic stability in rat liver microsomes assessed as parent compound remaining incubated for 60 mins in presence of NADPH by LC-MS/MS analysis; format: ADME, Microsome; settings: read-out: Stability
Estrogen receptor = molecular target: T1, Estrogen receptor (Homo sapiens, UniProt P03372); experiment: Induction of Estrogen receptor degradation in wildtype human MCF7 cells assessed as reduction in estrogen receptor level incubated for 24 hrs by Western blot analysis; format: cell-based
T1 sequence (P03372 whole entry): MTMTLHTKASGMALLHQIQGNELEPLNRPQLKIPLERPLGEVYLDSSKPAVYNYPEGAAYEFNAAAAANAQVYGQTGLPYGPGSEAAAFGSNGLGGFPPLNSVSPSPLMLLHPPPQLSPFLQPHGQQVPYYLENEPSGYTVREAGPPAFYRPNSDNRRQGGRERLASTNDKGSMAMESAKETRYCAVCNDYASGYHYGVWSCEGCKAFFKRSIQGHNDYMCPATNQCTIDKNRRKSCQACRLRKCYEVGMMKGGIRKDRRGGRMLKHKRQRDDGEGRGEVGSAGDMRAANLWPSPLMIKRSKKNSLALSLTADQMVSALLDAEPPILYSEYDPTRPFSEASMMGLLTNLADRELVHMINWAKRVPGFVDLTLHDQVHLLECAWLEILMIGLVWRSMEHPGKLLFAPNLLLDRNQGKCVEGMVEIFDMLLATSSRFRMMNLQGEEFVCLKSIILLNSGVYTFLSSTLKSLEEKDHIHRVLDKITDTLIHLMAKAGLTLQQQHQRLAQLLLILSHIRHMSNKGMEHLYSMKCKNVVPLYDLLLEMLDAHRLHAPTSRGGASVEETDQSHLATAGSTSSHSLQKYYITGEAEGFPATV

[3] = Solubility of compound in long acting formulation containing ethanol, benzyl alcohol, benzyl benzoate and castor oil at 28.07 mg incubated for 1 day by LC-MS/MS analysis; format: physicochemical; settings: 24 h
[4] = Solubility of compound in long acting formulation containing ethanol, benzyl alcohol, benzyl benzoate and castor oil at 57.27 mg incubated for 1 day by LC-MS/MS analysis; format: physicochemical; settings: 24 h
[5] = Solubility of compound in long acting formulation containing ethanol, benzyl alcohol, benzyl benzoate and castor oil incubated for 1 days by LC-MS/MS analysis; format: physicochemical; settings: 24 h; time 1 day
[6] = Tmax in Sprague-Dawley rat at 30 mg/kg, IM measured after 49 days by LC-MS/MS analysis; format: ADME, organism-based; settings: in vivo, 1176 h, time 49 day
[7] = MRT in Sprague-Dawley rat at 30 mg/kg, IM measured after 49 days by LC-MS/MS analysis; format: ADME, organism-based; settings: in vivo, time 49 day
[8] = AUClast in Sprague-Dawley rat at 30 mg/kg, IM measured after 49 days by LC-MS/MS analysis; format: ADME, organism-based; settings: in vivo, 1176 h, time 49 day
[9] = Drug concentration in BALB/cNj Foxn1nu/Gpt mouse plasma xenografted with human MCF-7/TAMR-1 cells at 0.8 mg, IM administered for 28 days; format: ADME, cell-free; settings: time 28 day
[10] = Cmax in Sprague-Dawley rat at 30 mg/kg, IM measured after 49 days by LC-MS/MS analysis; format: ADME, organism-based; settings: in vivo, time 49 day
[11] = Drug concentration in BALB/cNj Foxn1nu/Gpt mouse tumor xenografted with human MCF-7/TAMR-1 cells at 2.4 mg, IM administered for 28 days; format: ADME, tissue-based, Neoplasm; settings: time 28 day, read-out: Ct
MCF7 [12] = experiment: Induction of apoptosis in human MCF7 cells assessed as viable cells at 4 nM incubated for 24 hrs by Annexin V-FITC/PI staining based flow cytometric analysis (reference value: 93.5 %); format: functional; settings: read-out: Activity
[13] = Apparent volume of distribution during terminal phase in Sprague-Dawley rat at 30 mg/kg, IM measured after 49 days by LC-MS/MS analysis; format: ADME, organism-based; settings: in vivo, 1176 h, time 49 day
MCF7 [14] = experiment: Induction of apoptosis in human MCF7 cells assessed as viable cells at 20 nM incubated for 24 hrs by Annexin V-FITC/PI staining based flow cytometric analysis (reference value: 93.5 %); format: functional; settings: read-out: Activity
[15] = Half-life in Sprague-Dawley rat at 30 mg/kg, IM measured after 49 days by LC-MS/MS analysis; format: ADME, organism-based; settings: in vivo, time 49 day
[16] = Solubility of compound in long acting formulation containing ethanol, benzyl alcohol, benzyl benzoate and castor oil assessed as clear yellow oil solution at 33.69 mg incubated for 1 day by LC-MS/MS analysis; format: physicochemical; settings: 24 h
[17] = Drug concentration in BALB/cNj Foxn1nu/Gpt mouse tumor xenografted with human MCF-7/TAMR-1 cells at 0.8 mg, IM administered for 28 days; format: ADME, tissue-based, Neoplasm; settings: time 28 day, read-out: Ct
[18] = Drug concentration in BALB/cNj Foxn1nu/Gpt mouse plasma xenografted with human MCF-7/TAMR-1 cells at 7.2 mg, IM administered for 28 days; format: ADME, cell-free; settings: time 28 day
[19] = Drug concentration in BALB/cNj Foxn1nu/Gpt mouse tumor xenografted with human MCF-7/TAMR-1 cells at 7.2 mg, IM administered for 28 days; format: ADME, tissue-based, Neoplasm; settings: time 28 day, read-out: Ct
MCF7 [20] = experiment: Induction of apoptosis in human MCF7 cells assessed as viable cells at 100 nM incubated for 24 hrs by Annexin V-FITC/PI staining based flow cytometric analysis (reference value: 93.5 %); format: functional; settings: read-out: Activity
[21] = Drug concentration in BALB/cNj Foxn1nu/Gpt mouse plasma xenografted with human MCF-7/TAMR-1 cells at 2.4 mg, IM administered for 28 days; format: ADME, cell-free; settings: time 28 day
Mus musculus [22] = experiment: Invivo antagonist activity at Estrogen receptor in BALB/cNj Foxn1nu/Gpt mouse xenografted with human MCF-7/TAMR-1 cells assessed as single-layered cell phenotype of epithelial cells in uterus at 2.0 mg, IM administered for 28 days by H&E staining based analysis; format: functional; settings: time 28.0 day
T47D [23] = experiment: Antiproliferative activity against human T47D cells transfected with ESR1 Y537S mutant assessed as inhibition of cell proliferation incubated for 5 days by CellTiter-Glo assay; settings: 120 h
[24] = Cmax in Sprague-Dawley rat at 25 mg/kg, IM measured after 49 days by LC-MS/MS analysis; format: ADME, organism-based; settings: in vivo, time 49 day
Mus musculus [25] = experiment: In vivo antagonist activity at Estrogen receptor in BALB/cNj Foxn1nu/Gpt mouse xenografted with human MCF-7/TAMR-1 cells assessed as reduction in PgR level in tumor at 2.0 mg, IM administered for 28 days by Western blot analysis; format: functional; settings: time 28.0 day
T47D [26] = experiment: Antiproliferative activity against human T47D cells transfected with ESR1 D538G mutant assessed as inhibition of cell proliferation incubated for 5 days by CellTiter-Glo assay; settings: 120 h
T47D [27] = experiment: Antiproliferative activity against human T47D cells transfected with wildtype ESR1 assessed as inhibition of cell proliferation incubated for 5 days by CellTiter-Glo assay; settings: 120 h
[28] = molecular target: T2, Estrogen receptor (Homo sapiens) (UniProt P03372); settings: T47D, time <= 48.0 hrs
T2 sequence (whole entry): T1 sequence (P03372 whole entry)

[29] = AUClast in Sprague-Dawley rat at 25 mg/kg, IM measured after 49 days by LC-MS/MS analysis; format: ADME, organism-based; settings: in vivo, 1176 h, time 49 day
T47D [30] = experiment: Antiproliferative activity against human T47D cells assessed as inhibition of proliferation incubated for 6 days by CellTiter-Glo assay; settings: 144 h
[31] = Half-life in Sprague-Dawley rat at 25 mg/kg, IM measured after 49 days by LC-MS/MS analysis; format: ADME, organism-based; settings: in vivo, time 49 day
MCF7 [32] = experiment: Antiproliferative activity against wildtype human MCF7 cells assessed as inhibition of cell proliferation incubated for 6 days in presence of beta-estradiol by CellTiter-Glo assay; format: functional, cell-based; settings: MCF7, 144 h
[33] = molecular target: T2, Estrogen receptor (Homo sapiens); settings: MCF7, time <= 48.0 hrs
[34] = Drug concentration in BALB/cNj Foxn1nu/Gpt mouse plasma xenografted with human MCF-7/TAMR-1 cells at 2.0 mg, IM administered for 28 days; format: ADME, cell-free; settings: time 28 day
Mus musculus [35] = experiment: In vivo antagonist activity at Estrogen receptor in BALB/cNj Foxn1nu/Gpt mouse xenografted with human MCF-7/TAMR-1 cells assessed as reduction in ER level in tumor at 2.0 mg, IM administered for 28 days by Western blot analysis; format: functional; settings: time 28.0 day
MCF7 [36] = settings: Homo sapiens, dose 4.0 nM, time 144.0 hrs
[37] = In vivo antagonist activity at Estrogen receptor in BALB/cNj Foxn1nu/Gpt mouse xenografted with human MCF-7/TAMR-1 cells assessed as fold reduction in uterus wet weight to body weight ratio at 2.0 mg, IM administered for 28 days; format: functional; settings: time 28 day
[38] = Apparent volume of distribution during terminal phase in Sprague-Dawley rat at 25 mg/kg, IM measured after 49 days by LC-MS/MS analysis; format: ADME, organism-based; settings: in vivo, 1176 h, time 49 day
[39] = Tmax in Sprague-Dawley rat at 25 mg/kg, IM measured after 49 days by LC-MS/MS analysis; format: ADME, organism-based; settings: in vivo, time 49 day
[40] = MRT in Sprague-Dawley rat at 25 mg/kg, IM measured after 49 days by LC-MS/MS analysis; format: ADME, organism-based; settings: in vivo, time 49 day
[41] = Drug concentration in BALB/cNj Foxn1nu/Gpt mouse tumor xenografted with human MCF-7/TAMR-1 cells at 2.0 mg, IM administered for 28 days; format: ADME, tissue-based, Neoplasm; settings: time 28 day, read-out: Ct

SMILES: C[C@@H]1Cc2c([nH]c3ccccc23)[C@@H](c2c(F)cc(NC3CN(CC[S+]([O-])CCCC(F)(F)C(F)(F)F)C3)cc2F)N1CC(F)(F)F (stereo partly specified)
- remaining at 1 h [1]: 43%
- remaining at 1 h [2]: 71.6%

SMILES: C[C@@H]1Cc2c([nH]c3ccccc23)[C@@H](c2c(F)cc(NC3CN(CCOCCCC(F)(F)C(F)(F)F)C3)cc2F)N1CC(F)(F)CO
- DC50 (Estrogen receptor): 3.8 nM

SMILES: C[C@@H]1Cc2c([nH]c3ccccc23)[C@@H](c2c(F)cc(NC3CN(CCCS(=O)(=O)CCCC(F)(F)C(F)(F)F)C3)cc2F)N1CC(F)(F)CO
- solubility [3]: Insoluble
- solubility [4]: Insoluble
- solubility [5]: 95.1 mg/mL (≈ 131 mM)
- Tmax [6]: 14 days
- MRT [7]: 15.6 days
- AUClast [8]: 840.09 ng·days/mL
- concentration at 672 h [9]: 14.9 ng/mL
- Cmax [10]: 41.5 ng/mL
- concentration at 672 h [11]: 154 ng/mL
- viability at 0.004 µM (MCF7 [12]): 82.7%
- Vz/F [13]: 1658.37 L/kg
- remaining at 1 h [1]: 61%
- viability at 0.02 µM (MCF7 [14]): 70.5%
- half-life [15]: 14.7 days
- solubility [16]: Soluble
- concentration at 672 h [17]: 35.9 ng/mL
- concentration at 672 h [18]: 87.7 ng/mL
- remaining at 1 h [2]: 85.7%
- concentration at 672 h [19]: 252 ng/mL
- viability at 0.1 µM (MCF7 [20]): 66.2%
- concentration at 672 h [21]: 46.6 ng/mL

SMILES: C[C@]12CC[C@@H]3c4ccc(O)cc4C[C@@H](CCCCCCCCC[S+]([O-])CCCC(F)(F)C(F)(F)F)[C@H]3[C@@H]1CC[C@@H]2O (stereo partly specified) [FULVESTRANT]
- Activity (Mus musculus [22]): Active
- solubility [5]: 53.17 mg/mL (≈ 87.6 mM)
- IC50 (T47D [23]): 5.94 nM
- Cmax [24]: 36.7 ng/mL
- Activity (Mus musculus [25]): Active
- IC50 (T47D [26]): 58.6 nM
- IC50 (T47D [27]): 2.21 nM
- T1/2 [28]: 0.608 days
- AUClast [29]: 325.96 ng·days/mL
- IC50 (T47D [30]): 2.3 nM
- half-life [31]: 28.6 days
- IC50 (MCF7 [32]): 0.7 nM
- T1/2 [33]: 0.0542 days
- remaining at 1 h [1]: 13%
- concentration at 672 h [34]: 30.8 ng/mL
- Activity (Mus musculus [35]): Active
- inhibition (MCF7 [36]): Active
- fold change (FC) [37]: ~2
- remaining at 1 h [2]: 9.6%
- Vz/F [38]: 2158.67 L/kg
- Tmax [39]: 0.29 days
- MRT [40]: 18.3 days
- concentration at 672 h [41]: 83.4 ng/mL

SMILES: C[C@@H]1Cc2c([nH]c3ccccc23)[C@@H](c2c(F)cc(NC3CN(CCC[S+]([O-])CCCC(F)(F)C(F)(F)F)C3)cc2F)N1CC(F)(F)F (stereo partly specified)
- IC50 (MCF7 [32]): 2.7 nM
- remaining at 1 h [1]: 57.4%
- DC50 (Estrogen receptor): 1.7 nM
- remaining at 1 h [2]: 93.7%

Source: ChEMBL document CHEMBL5528003 (Eur J Med Chem, 2024)
